For nine compounds, GI50 and TGI results are on record in PubChem BioAssay (NCI).

Among the test systems are NCI/ADR-RES ovarian; M14 melanoma; TK-10 renal; HCT-116 colon; NCI-H460 lung; SNB-19 CNS; SR leukemia; SF-295 CNS.
Assay in all cases: NCI-60 cell line screen, 48 h

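Dose response: 5 concentrations. Exposure: 48 h. Format: 96-well plates. Endpoint: linear interpolation; highest concentration if not reached. At the GI50, growth is halved. TGI: total growth inhibition.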 Some results are limits rather than exact numbers.

`C/C(=N/O)c1ccc(Nc2cc(-n3ccnc3)c3ccccc3n2)cc1`: the GI50 in the experiment with NCI/ADR-RES ovarian is 42.9 µM; in the experiment with M14 melanoma, 5.75 µM; with TK-10 renal, 16.4 µM; with HCT-116 colon, 14.6 µM; in the experiment on NCI-H460 lung it was 21.5 µM; in the experiment on SNB-19 CNS, 75.3 µM. Moreover, the GI50 is 3.78 µM in the experiment on SR leukemia and 15.1 µM in the experiment on SF-295 CNS. Moreover, the TGI in the experiment on NCI/ADR-RES ovarian is over 100 µM; in the experiment with M14 melanoma, over 100 µM; in the experiment on TK-10 renal, over 100 µM; in the experiment on HCT-116 colon, 38.9 µM; with NCI-H460 lung it was over 100 µM; with SNB-19 CNS, over 100 µM. The TGI with SR leukemia and in the experiment on SF-295 CNS was over 100 µM throughout.

Take `CN(C(=O)CNC(=O)/C=C/c1cccc(Cl)c1)C1CCS(=O)(=O)CC1`: the GI50 in the experiment on NCI/ADR-RES ovarian was over 100 µM; in the experiment on M14 melanoma, 1.48 µM; with TK-10 renal, 2.27 µM; in the experiment on HCT-116 colon, 1.52 µM; in the experiment with NCI-H460 lung it was 13.9 µM; with SNB-19 CNS, over 100 µM. Also, the GI50 is over 100 µM in the experiment with SR leukemia and 5.03 µM in the experiment with SF-295 CNS. Also, the TGI with NCI/ADR-RES ovarian, in the experiment with M14 melanoma, in the experiment on TK-10 renal, in the experiment on HCT-116 colon, with NCI-H460 lung and in the experiment with SNB-19 CNS was over 100 µM each time. In addition, the TGI with SR leukemia and in the experiment on SF-295 CNS was over 100 µM each time.

Consider `O=Cc1ccc(N2CCN(c3ccc(C=O)cc3)CC2)cc1`, for which the GI50 in the experiment on NCI/ADR-RES ovarian was over 100 µM; in the experiment on M14 melanoma, over 100 µM; with TK-10 renal it was 4.13 µM; with HCT-116 colon, 71.5 µM; in the experiment on NCI-H460 lung, 77.2 µM; with SNB-19 CNS, over 100 µM. The GI50 in the experiment with SR leukemia and in the experiment with SF-295 CNS was over 100 µM each time. Besides, the TGI is over 100 µM in the experiment on NCI/ADR-RES ovarian; over 100 µM in the experiment on M14 melanoma; 76.8 µM with TK-10 renal; over 100 µM in the experiment with HCT-116 colon; over 100 µM with NCI-H460 lung; over 100 µM in the experiment on SNB-19 CNS. For the same compound, the TGI in the experiment with SR leukemia and in the experiment with SF-295 CNS was over 100 µM throughout.

Take `Cc1cc(Br)cc(C)c1NC(=O)C(=O)Nn1c(=S)[nH]c2ccccc2c1=O`: the TGI in the experiment on NCI/ADR-RES ovarian, in the experiment on M14 melanoma, in the experiment with TK-10 renal, in the experiment with HCT-116 colon, in the experiment on NCI-H460 lung and with SNB-19 CNS was over 100 µM in each case. The TGI in the experiment on SR leukemia and in the experiment with SF-295 CNS was over 100 µM in each case.

`COc1cc(Cn2c(-c3ccccc3)cc3c2-c2oncc2CC3)cc(OC)c1`: the GI50 with NCI/ADR-RES ovarian was 0.208 µM; in the experiment with M14 melanoma, 0.299 µM; in the experiment on TK-10 renal it was 2.44 µM; in the experiment on HCT-116 colon, 0.354 µM; in the experiment with NCI-H460 lung, 0.333 µM; in the experiment with SNB-19 CNS, 0.562 µM. Further, the GI50 in the experiment on SR leukemia was 0.308 µM; in the experiment with SF-295 CNS, 0.209 µM. In addition, the TGI in the experiment with TK-10 renal was over 100 µM; in the experiment with HCT-116 colon it was over 46.8 µM; with NCI-H460 lung it was 5.32 µM; with SNB-19 CNS it was over 100 µM; with SR leukemia, over 40.7 µM; in the experiment with SF-295 CNS, 4.03 µM.

`COc1cccc(NC2=C(Cl)C(=O)N(Cc3ccc(Cl)cc3)C2=O)c1`: the GI50 with NCI/ADR-RES ovarian is 1.22 µM; in the experiment on M14 melanoma, 1.66 µM; with TK-10 renal, 3.45 µM; in the experiment on HCT-116 colon, 1.59 µM; in the experiment on NCI-H460 lung it was 2.93 µM; in the experiment on SNB-19 CNS, 8.25 µM. For the same compound, the GI50 in the experiment with SR leukemia is 0.261 µM; in the experiment on SF-295 CNS it was 2.35 µM. Also, the TGI with NCI/ADR-RES ovarian was 5.39 µM; in the experiment on M14 melanoma, 7.71 µM; in the experiment with TK-10 renal it was 27.3 µM; with HCT-116 colon it was 13.5 µM; with NCI-H460 lung it was 18.5 µM; in the experiment on SNB-19 CNS it was over 100 µM. The TGI in the experiment on SF-295 CNS stood at 12.8 µM.

As to `Nc1c(C(=O)Nc2cccc3ccccc23)sc2nc3c(cc12)C(=O)CCC3`, the GI50 in the experiment with NCI/ADR-RES ovarian was 0.225 µM; in the experiment with M14 melanoma, 0.24 µM; with TK-10 renal, 12.9 µM; in the experiment with HCT-116 colon it was 0.327 µM; in the experiment on NCI-H460 lung, 0.165 µM; in the experiment on SNB-19 CNS, 0.603 µM. For the same compound, the GI50 is 0.38 µM in the experiment on SR leukemia and 0.0779 µM in the experiment with SF-295 CNS. In addition, the TGI in the experiment with M14 melanoma was over 100 µM; in the experiment on TK-10 renal it was over 100 µM; with HCT-116 colon, over 100 µM; in the experiment on SNB-19 CNS, over 81 µM; in the experiment with SR leukemia, over 100 µM.

`COc1cc(/C=N/NC(=O)c2ccccc2Nc2cccc(C(F)(F)F)c2)cc(OC)c1OC`: the GI50 in the experiment with NCI/ADR-RES ovarian was 3.87 µM; in the experiment on M14 melanoma, 3.35 µM; with TK-10 renal it was 2.36 µM; with HCT-116 colon, 2.48 µM; in the experiment with NCI-H460 lung, 2.3 µM; with SNB-19 CNS it was 3.85 µM. For the same compound, the GI50 in the experiment with SR leukemia is 1.3 µM; in the experiment with SF-295 CNS, 0.471 µM. For the same compound, the TGI was found to be 14.4 µM with NCI/ADR-RES ovarian; 14.4 µM in the experiment with M14 melanoma; 8.74 µM with TK-10 renal; 6.4 µM in the experiment with HCT-116 colon; 6.33 µM in the experiment with NCI-H460 lung; 18.5 µM with SNB-19 CNS. Besides, the TGI amounted to 4.16 µM in the experiment with SR leukemia and 3.04 µM in the experiment on SF-295 CNS.

As to `O=C(/C=C/c1ccc([N+](=O)[O-])cc1)c1cccc(Nc2nc(Nc3ccccc3)nc(Nc3ccccc3)n2)c1`, the GI50 in the experiment with NCI/ADR-RES ovarian was 18.2 µM; with M14 melanoma, 21.6 µM; with TK-10 renal, 54.3 µM; in the experiment with NCI-H460 lung, 9.63 µM; in the experiment on SNB-19 CNS, 79.8 µM; with SR leukemia, 0.484 µM. For the same compound, the GI50 in the experiment with SF-295 CNS was 9.81 µM. In addition, the TGI in the experiment on NCI/ADR-RES ovarian was over 100 µM; in the experiment on M14 melanoma, 90.6 µM; in the experiment on TK-10 renal, over 100 µM; in the experiment with NCI-H460 lung, 38 µM; with SNB-19 CNS, over 100 µM; with SR leukemia, 6.92 µM. Further, the TGI with SF-295 CNS was over 100 µM.
